Reference: patent US4619943A, “Neolignans of Saururus cernuus L and analogues thereof” (priority 1984, dated 1986)
≈ marks a conversion by molar mass, not a printed value. Where “and” joins values, the source holds several entries; their conditions need not be identical. Equal values may be shown once. Entries after “also recorded” stand apart in the source; their conditions may differ.

Tests used:
[1] = Morphine antagonism (Straub tail phenomenon); details: SC-8 1.5 mg/Kg, morphine sulfate 20 mg/Kg ip
mice [2] = assay: Neuroleptic / CNS-depressant activity in experimental animals (general statements); assay type: in vivo
[3] = Acute toxicity (LD50) in mice, procedure of Turner; assay type: in vivo, male Swiss mice; details: mouse, in vivo, ip; mice, intraperitoneal, 24 hours
mice [4] = assay: Acute toxicity (LD50) in mice, procedure of Turner; assay type: in vivo, male Swiss mice
Solubility = assay type: physicochemical
[5] = system: southern armyworm (Spodoptera eridania); assay: Insecticidal activity against southern armyworm; assay type: in vivo; details: both application rates, 1000 and 500 ppm, 14 days
Description: The present compounds were tested for insecticidal activity against cabbage looper (Trichoplusia ni [Hubner]), and southern armyworm (Spodoptera eridania) at application rates of 1000 and 500 ppm. The tests were conducted in petri dishes containing a solid food source in which the test compounds had been incorporated. The petri dishes containing the treated food source were infested with second instar larvae of southern armyworms or cabbage loopers. Ten larvae per replicate and two replicates per test rate were used. Mortality data were taken 14 days after infestation.

Pimephales promelas = assay: Acute toxicity to fish; assay type: in vivo; details: for % Mortality, Avg / % Mortality, single replicates (1 to 6): 2 hours; for % Mortality, single replicates (1 to 6): 120 min
Description: Many compounds having insecticidal activity also show toxicity to fish. For example, rotenoids, pyrethrins, and DDT have significant toxicity to fish. For this reason, fish have been used frequently to indicate potential insecticidal activity. The present compounds were tested for acute toxicity to fish by the method described in "Methods For Acute Toxicity Tests With Fish, Macro-Invertebrates and Amphibians", EPA 660/3-75-009, Committee on Methods for Toxicity Tests With Aquatic Organisms, Environmental Protection Agency, Corvallis, OR, 1975.
The fish, commonly known as Missouri minnows or fat heads (Pimephales promelas, family, cyprinidae) were purchased from a local hatchery and equilibrated to the new surroundings for 24 hours. They were kept in deionized water, previously adjusted to pH 6.5 with phosphate buffer at 23° C. Sufficient oxygen was provided, and the fish were deprived of food during the test period.
Groups of six fish were placed in containers with different concentrations of the test compound. The percent mortality was recorded every 30 minutes. The LC 50 values (mg/L) and 95% confidence limits were determined from the percent mortality data after 2 hours of exposure from 6 separate replicates using the method of Lichfield and Wiloxon [(J. Pharmacology and Exp. Therepeutics, 96, 99-113 (1949))].

mice [6] = assay: Behavioral assay in mice (Campbell and Richter), sixteen behavioral signs; assay type: in vivo; details: injected, after 30 minutes
Description: The behavioral assay in mice was carried out using the procedures of Campbell and Richter (D. E. S. Campbell and W. Richter, Acta Pharmacol. et Toxicol. 25, 345 (1967)). The method involved injection of five mice with the drug and obseving for sixteen behavioral signs after 30 minutes. A recognizable pattern will be apparent, characteristic of various CNS-activities: sympathomimetic, tranquilizer, etc.
Ten male Swiss mice (20-25 g) were divided into groups. One group was injected with physiological saline to serve as control. The other group was injected with 15 mg/Kg of benzene-partition sample (prepared as in Example 2) in suspension form (0.6 mg/ml) in physiological saline solution containing 0.5% carboxymethylcellulose. […] These are all considered as indicators of neuroleptic activity.

M. incognita = assay: Effect on nematode motility; assay type: in vivo, Meloidogyne incognita; details: 24 hours, of 300 juveniles; for Number of Motile Nematodes, Avg.: water 233.6
Description: In a separate test, 300 juveniles of M. incognita were placed in a container closed with a screen of openings 17 μm and exposed to various concentrations of the test compound. After 24 hours, the number of nematodes able to migrate downward (from the inverted container) were counted. Eight replicates were run for each sample, and the results were analyzed by Duncan's

[7] = Antiamphetamine activity (method of Weissman et al., mice instead of rats); assay type: in vivo
Description: Neuroleptic drugs are said to bind to postsynaptic dopamine receptors in the brain, thereby blocking dopaminergic transmission. […] Based on this, an assay for possible neuroleptic activity was developed and is commonly used. […] 151, 339 (1966)), except that mice were used instead of rats. A comparison under the same conditions was also made of the antiamphetamine activity of a standard neuroleptic drug, haloperidol, which gave an ED50 value of 0.5 mg/Kg (Table 2).

[8] = system: mosquito larvae (Aedes aegypti); assay: Mosquito larvae test; assay type: in vivo; details: 24 hours
Description: Similarly, in a test using mosquito larvae (Aedes aegypti) as the insect test species, SC-7 gave 15% mortality and SC-8 gave 93% mortality at an application rate of 100 ppm. In this test, one ml of a solution of 1000 ppm of the test compound in 10% acetone - 90% water was added to 9 ml of water in a culture tube. Ten mosquito larvae were added, and mortality readings were taken 24 hours later.

Compound: COc1ccc(C(O)C(C)Oc2ccc([C@@H]3O[C@@H](c4ccc(OC(C)C(O)c5ccc(OC)c(OC)c5)c(OC)c4)[C@@H](C)[C@@H]3C)cc2OC)cc1OC (stereo partly drawn) [SC-8, 2α,5β-bis[3-methoxy-4-{threo-3-hydroxy-3-(3,4-dimethoxyphenyl)}isopropoxyphenyl]-3α,4β-dimethyltetrahydrofuran]
- effect on morphine-induced Straub tail [1]: counteracted this effect
- Degree of Tail Elevation, After 20 min. ([1]; before SC-8 40°): 10 °
- Degree of Tail Elevation, After 50 min. ([1]; before SC-8 40°): 10 °
- CNS-depressant activity (mice [2]; experimental animals / mice): useful CNS-depressant activity
- neuroleptic activity (mice [2]; mouse, in vivo): neuroleptically active
- LD50 at 24 h [3]: 5.2 ± 0.2 mg/kg
- LD10 (mice [4]; mice): 4 mg/kg
- toxicity by the oral route (mice [4]; mice, oral, dose range of 10-20 mg/Kg): toxic
- absorbability following oral administration (mice [4]; oral, inferred from oral toxicity at 10-20 mg/Kg): ready absorbability
- solubility in alcohols, acetone, chloroform, benzene and ethyl acetate (Solubility; alcohols, acetone, chloroform, benzene, ethyl acetate): readily soluble
- solubility in ether (Solubility; ether): sparingly
- solubility in hexane or water (Solubility; hexane or water): very slightly
- insecticidal activity, southern armyworm [5]: inactive
- % Mortality, Avg (Pimephales promelas; 0.13 mg/L): 9%
- % Mortality, single replicates (1 to 6) (Pimephales promelas; 0.13 mg/L): 0% (3×) and 17% (3×)
- % Mortality, Avg (Pimephales promelas; 0.25 mg/L): 28%
- % Mortality, single replicates (1 to 6) (Pimephales promelas; 0.25 mg/L): 33% (4×) and 17% (2×)
- % Mortality, Avg (Pimephales promelas; 0.38 mg/L): 50%
- % Mortality, single replicates (1 to 6) (Pimephales promelas; 0.38 mg/L): 67% and 50% (4×) and 33%
- % Mortality, Avg (Pimephales promelas; 0.5 mg/L): 64%
- % Mortality, single replicates (1 to 6) (Pimephales promelas; 0.5 mg/L): 67% (5×) and 50%
- % Mortality, Avg (Pimephales promelas; 0.75 mg/L): 75%
- % Mortality, single replicates (1 to 6) (Pimephales promelas; 0.75 mg/L): 83% (3×) and 67% (3×)
- % Mortality, Avg (Pimephales promelas; 1.0 mg/L): 97%
- % Mortality, single replicates (1 to 6) (Pimephales promelas; 1.0 mg/L): 100% (5×) and 83%
- LC50 (Pimephales promelas; 2 hours of exposure, pH 6.5, 23° C): 0.48 µg/mL (≈ 0.655 µM)
- behavioral signs (mice [6]): head drop with righting reflex; also recorded: decreased locomotion; also recorded: abduced hindlegs with righting reflex; also recorded: unsteady gait; also recorded: catalepsy
- lowering of body temperature from 37° to (mice [6]; from 37°): 31 °
- Number of Motile Nematodes, single replicates (1 to 8) (M. incognita; 1 ppm): 258 and 233 and 186 and 340 and 295 and 248 and 103 and 238
- Number of Motile Nematodes, Avg. (M. incognita; 1 ppm): 237.6
- Number of Motile Nematodes, single replicates (1 to 8) (M. incognita; 5 ppm): 113 and 294 and 223 and 236 and 264 and 256 and 205 and 211
- Number of Motile Nematodes, Avg. (M. incognita; 5 ppm): 225.3
- Number of Motile Nematodes, single replicates (1 to 8) (M. incognita; 10 ppm): 188 and 170 and 174 and 263 and 204 and 214 and 228
- Number of Motile Nematodes, Avg. (M. incognita; 10 ppm): 201.4
- Number of Motile Nematodes, single replicates (1 to 8) (M. incognita; 25 ppm): 67 and 85 and 97 and 56 and 99 and 120 and 131 and 84
- Number of Motile Nematodes, Avg. (M. incognita; 25 ppm): 92.4
- Number of Motile Nematodes, single replicates (1 to 8) (M. incognita; 50 ppm): 163 and 223 and 109 and 102 and 31 and 232 and 225 and 108
- Number of Motile Nematodes, Avg. (M. incognita; 50 ppm): 149.1
- ED50 ([7]; Mus musculus, mice, inhibition of amphetamine-induced agitation, stereotypy, body-hydration): 0.2 mg/kg
- % Inhibition (antiamphetamine activity) ([7]; mice, dose 0.03 mg/Kg): 20%
- % Inhibition (antiamphetamine activity) ([7]; mice, dose 0.1 mg/Kg): 40%
- % Inhibition (antiamphetamine activity) ([7]; mice, dose 0.3 mg/Kg): 60%
- % Inhibition (antiamphetamine activity) ([7]; mice, dose 0.5 mg/Kg): 60%
- % Inhibition (antiamphetamine activity) ([7]; mice, dose 1.0 mg/Kg): 70%
- % Inhibition (antiamphetamine activity) ([7]; mice, dose 1.2 mg/Kg): 80%
- % Inhibition (antiamphetamine activity) ([7]; mice, dose 1.5 mg/Kg): 80%
- inhibiting hyperactivity, agitation, and other effects induced by CNS stimulants of the amphetamine class (summary) ([7]; summary statement, no dose): significant activity
- mortality at 100 ppm [8]: 93%
